Values quoted from earlier work, collected in patent US10603330B2, “Arginase inhibitors as therapeutics” (Mars, Incorporated, priority 2010, dated 2020).

How the values were obtained:
EAE = settings: animals undergoing experimental autoimmune encephalomyelitis
[1] = system: central airways responsiveness; settings: murine chronic asthma model
[2] = system: bacterial arginase (H. pylori); settings: inhibition of bacterial arginase
blood pressure = settings: spontaneously hypertensive animals

NC(CCCCB(O)O)C(=O)O (stereo not shown) [ABH, amino-6-boronohexanoic acid]
severity of EAE vs control animals (EAE): much milder form of EAE

N[C@@H](CSCCB(O)O)C(=O)O [S-(2-boronoethyl)-L-cysteine]
methacholine induced responsiveness of the central airways [1]: attenuated

NC(=NCCC[C@H](N)C(=O)O)NO [NOHA]
CD3 expression on T-cells [2]: reestablished CD3 expression on T-cells

N=C(NO)NCC[C@H](N)C(=O)O [nor-NOHA, N^ω-hydroxy-nor-L-arginine]
blood pressure (blood pressure): lowered blood pressure
